Laboratory results: the METLIN SMRT retention time set (Domingo-Almenara et al. 2019)

Assay: gradient 5% acetonitrile 3 min, to 50% in 2 min, to 85% in 15 min, held 3 min, 100 µL/min
Conditions: column: Zorbax Extend-C18 2.1 x 50 mm; eluents: water / acetonitrile, 0.1% formic acid
Method in brief: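 A Zorbax Extend-C18 column (2.1 × 50 mm, 1.8 μm) run at 100 μL/min with water and acetonitrile, both containing 0.1% formic acid, separated mixtures of ~100 pure standards. The HPLC was coupled to a quadrupole time-of-flight mass spectrometer operated in positive and negative ionization mode, with dead and dwell volumes of 40 μL and 900 μL. Each retention time was taken from a computationally picked adduct peak that was then manually inspected.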

| SMILES | RP-LC retention time |
| --- | --- |
| Cc1ccc(-c2csc(NC(=O)c3ccc4c(c3)OCO4)n2)cc1 | 1060 s |
| Fc1ccc(OCc2nn3c(CSc4ccccc4)nnc3s2)cc1 | 966 s |
| Cc1ccc(CNC(=O)CCCn2c3ccccc3c3cnn(C)c(=O)c32)o1 | 814 s |
| CN(C)C(=O)c1csc(S(=O)(=O)N2CCC(C(=O)NC3CCCCCCC3)CC2)c1 | 835 s |
| CN(C)C(=O)c1cc(N(C)C)nc2ccc(F)cc12 | 575 s |
| Cc1c(Cl)cccc1S(=O)(=O)N1CCCC1c1nc(-c2cccc(F)c2)no1 (stereo not drawn) | 1220 s |
| COc1ccc(NC(=O)N(C)CC2CCOCC2)cc1F | 682 s |
| COc1ccc(C(=O)NC2CCN(c3cc(-c4ccccc4)[nH]n3)C2)cc1OC (stereo not drawn) | 663 s |
| O=C1CCCc2cc(S(=O)(=O)N3CCN(c4cccc(C(F)(F)F)c4)CC3)ccc2N1 | 980 s |
| COc1cn2c(cc1=O)C(=O)N(CCNC(=O)c1c(F)cccc1Cl)CC2 | 660 s |
| Cc1cccc(Nc2c(-c3ccccc3)nc3ncccn23)c1C | 671 s |
| CCOCCCNC(=O)c1nnc(-c2ccc(S(=O)(=O)N3CCC(C)CC3)cc2)o1 | 924 s |
| CCC(=O)N1CCc2cc(N3CC(C(=O)NC4CCCC4)CC3=O)ccc21 (stereo not drawn) | 686 s |
| O=C(NCc1ccc(Br)cc1)C1CCN(C(=O)c2cc(-c3ccncc3)n[nH]2)CC1 | 618 s |
| Cc1ccc(NC(=O)Nc2ccc3nnc(C4CCC4)n3c2)cc1Cl | 870 s |
| CCn1c(=O)c(N2CCN(C(=O)Nc3ccc(F)cc3F)CC2)nc2ccccc21 | 895 s |
| CC(C)CN(CC1CN(C(=O)COc2ccccc2)CCO1)C(=O)c1ccccc1 (stereo not drawn) | 851 s |
| COc1ccc(CNC(=O)NCC2CCN(S(=O)(=O)C3CC3)CC2)cc1 | 662 s |
| CCOc1ccc(S(=O)(=O)N2CCC(C(=O)Nc3ccc(Br)cc3F)CC2)cc1 | 1060 s |
| CC(C)CCN1CCC(N2CCN(S(=O)(=O)c3ccc(F)cc3)CC2)C1=O (stereo not drawn) | 662 s |
| COc1ccc(-c2noc(-c3nnn4c3COC(c3ccc(F)cc3)C4)n2)cc1OC (stereo not drawn) | 1020 s |
| Cc1ccc(NC(=O)Cn2cnc3c(sc4nc(-c5ccccc5)ccc43)c2=O)c(Cl)c1 | 1120 s |

| SMILES | RP-LC retention time |
| --- | --- |
| CC(C)CC(=O)N1CCCC(C(=O)N2CCOCC2)C1 (stereo not drawn) | 628 s |
| Cc1ccc(N2CC(c3noc(-c4ccc(-c5ccccc5)cc4)n3)CC2=O)cc1 (stereo not drawn) | 1180 s |
| O=C(Cn1ncc2c(N3CCN(c4ccccn4)CC3)ncnc21)Nc1cccc(F)c1 | 563 s |
| COc1ccc(N2CCN(S(=O)(=O)c3cc(-c4nnc(C5CCC5)o4)co3)CC2)cc1 | 1000 s |
| COCCOC(=O)C1=C(C)NC(=O)NC1c1cn(-c2ccccc2)nc1-c1cccs1 (stereo not drawn) | 742 s |
| CCc1ccc(-c2cn3cc(C(=O)NCCN4CCN(CC)CC4)ccc3n2)cc1 | 576 s |
| Cc1ccc(C)c(NC(=O)C2CCCN(c3cn[nH]c(=O)c3)C2)c1 (stereo not drawn) | 668 s |
| Cn1cc(CN2CCC(C(=O)NC3CCCC3)CC2)c2cc(Cl)ccc21 | 692 s |
| O=C(CN1C(=O)CCCc2cc(S(=O)(=O)N3CCCCCC3)ccc21)NCc1ccccc1 | 905 s |
| O=C(Cn1cccc1-c1nc(-c2ccc(F)cc2)no1)Nc1ccc2c(c1)OCO2 | 1010 s |
| Cc1ccc(S(=O)(=O)N2CCC(c3nc(C(=O)N(C)C)c(C)o3)CC2)cc1C | 878 s |
| CCOC(=O)c1c(C)oc2nc(C)nc(Nc3ccc(OCC)cc3)c12 | 1360 s |
| CCN1CCN(c2nccc(-c3cnc4nc(-c5ccc(Cl)cc5)nn4c3C)n2)CC1 | 1010 s |
| O=C(c1cc(Br)ccc1Cl)N1CCN(c2ccc(-n3ccnc3)nn2)CC1 | 575 s |
| O=C(c1ccco1)N1CCN(C(=O)c2sc3ncccc3c2-n2cccc2)CC1 | 753 s |
| CCN1C(=O)COc2ccc(-c3noc(-c4ccccc4Br)n3)cc21 | 1180 s |
| O=C(O)c1nnn(-c2cccc(F)c2)c1-c1cccnc1 | 614 s |
| O=C(CN1CCc2ccccc2C1C(=O)N1CCCCC1)NCc1ccc(Cl)cc1 (stereo not drawn) | 910 s |
| CC(=O)N1CCN(C2=NC(=O)/C(=C\c3ccc(O)c([N+](=O)[O-])c3)S2)CC1 | 589 s |
| O=C(Cn1nc2c(SC3CCCCC3)nccn2c1=O)Nc1ccc(Br)cc1 | 1120 s |
| COc1ccc(C)cc1NC(=O)C(=O)NCCc1csc(-c2ccc(Cl)cc2)n1 | 1280 s |
| CCc1cccc(C)c1Nc1c(-c2ccc(Cl)cc2)nc2ncccn12 | 978 s |

| SMILES | RP-LC retention time |
| --- | --- |
| Cc1cc(C)c(C(=O)N2CCCC(C(=O)NC3CCCCC3)C2)[nH]1 (stereo not drawn) | 809 s |
| Cc1cc(OCC(=O)N[C@H](C(=O)O)c2ccccc2)c2c3c(c(=O)oc2c1)CCCC3 | 879 s |
| COc1cccc(N2CCN(C(=O)C3CCCN(c4nc5ncccc5n5cccc45)C3)CC2)c1 (stereo not drawn) | 696 s |
| COc1ccc(-c2nc3cc(C)ccn3c2NC(=O)c2ccc(Br)cc2)cc1 | 727 s |
| O=C(Nc1cnc(N2CCCCC2)nc1)c1ccccc1Br | 902 s |
| Cc1ccc(-c2ncccc2CNS(=O)(=O)c2cccs2)cc1 | 675 s |
| CCOC(=O)CNC(=O)N1CCC2(CC1)NC(=O)c1ccccc1O2 | 630 s |
| Fc1ccc(-c2nnc(Cc3nc(-c4ccccc4F)no3)o2)cc1 | 1010 s |
| CCn1c(=O)c2ccccc2n(Cc2nc(-c3ccccc3C)no2)c1=O | 1070 s |
| O=C(NCCc1ccccn1)C1CN(C(=O)c2cccs2)CC12CCCCC2 (stereo not drawn) | 602 s |
| O=C(NC1CCN(Cc2ccccc2)CC1)C1CCN(c2ncnc3c2oc2ccccc23)CC1 | 603 s |
| COC1CCC12CCN(Cc1ccc(C#N)cc1)CC2 (stereo not drawn) | 597 s |
| CC(C)c1nc(NC(=O)Cn2nc3c(cc2=O)CCCCC3)n[nH]1 | 632 s |
| Cc1nc2ccc(NC(=O)Cc3ccc4c(c3)OCO4)cc2s1 | 716 s |
| Cc1ccc(N2CCN(C(=O)c3ccc(Cn4cncn4)cc3)CC2)c(C)c1 | 867 s |
| CCc1noc(NC(C)=O)c1-c1ccc(C)c(S(=O)(=O)Nc2ccc(C(=O)OC)cc2)c1 | 736 s |
| O=C1NC2(CCN(C(=O)Nc3ccc(F)cc3)CC2)N=C1c1cccc(Cl)c1 | 872 s |
| Cc1ccc(Nc2c(-c3cccc([N+](=O)[O-])c3)nc3cc(C)ccn23)cc1 | 794 s |
| COc1cccc(C(=O)N2CCN(c3ccc(-c4ccccn4)nn3)CC2)c1OC | 586 s |
| CCn1ccc(C(=O)N2CCCN(C3=NS(=O)(=O)C(c4ccc(F)cc4)=C3C)CC2)n1 | 759 s |
| CC(=O)NCCc1csc(C2CCN(C(=O)C3CCC3)CC2)n1 | 625 s |
| O=C(C1CC1)N1CCCn2nc(-c3cccc(F)c3)cc2C1 | 784 s |

| SMILES | RP-LC retention time |
| --- | --- |
| CCn1cc(-c2ccccc2)cc1C(=O)NCc1ccccn1 | 703 s |
| CN1CCN(c2ccccc2NC(=O)C2CCCN(c3ncnc4c3nc3n4CCCCC3)C2)CC1 (stereo not drawn) | 635 s |
| O=C(NCc1ccc(Cl)cc1)c1nc(N2CCOCC2)c2ccccc2n1 | 721 s |
| CCOc1nc(OCC)c2cnn(C)c2n1 | 901 s |
| CCC(=O)N1CCCc2cc(NC(=O)COc3ccc(F)cc3)ccc21 | 850 s |
| COc1ccc2c(c1)C1(CCN(S(=O)(=O)c3ccc(C#N)cc3)C1)C(=O)N2 (stereo not drawn) | 797 s |
| COc1ccc(CCN2CC(=O)N(c3ccc(C)c(C)c3)[C@@H]3CS(=O)(=O)C[C@@H]32)cc1 | 886 s |
| CCCC(=O)Nc1nc(-c2ccccc2)c(-c2ccccc2)s1 | 1160 s |
| CCCC(C)NC(=O)c1cc2c(s1)N(C)CCCC2 (stereo not drawn) | 974 s |
| CC(C)NC(=O)c1ccc(OCC2CCCN(C(=O)C(C)C)C2)cc1 (stereo not drawn) | 787 s |
| O=C(Nc1ccc(F)cc1F)N1CCN(CCn2c(-c3ccncc3)nc3cccnc32)CC1 | 581 s |
| NS(=O)(=O)c1ccc(CCNS(=O)(=O)c2ccc(-c3cc(C(F)(F)F)on3)o2)cc1 | 874 s |
| CS(=O)(=O)N1CCN(C(=O)CCC2CCN(c3cc(NC4CC4)ncn3)CC2)CC1 | 606 s |
| O=C(Cc1ccccc1Cl)N1CCC2(C1)C(=O)Nc1ccccc12 (stereo not drawn) | 758 s |
| COc1cccc(Cn2nc(-c3nc(-c4ccc(Cl)cc4)no3)ccc2=O)c1 | 1190 s |
| CCOc1ccc(-c2noc(Cn3c(=O)n(CC4CCCO4)c(=O)c4ccccc43)n2)cc1OC (stereo not drawn) | 957 s |
| Cn1ncc2c3ccccc3n(CCCC(=O)NCc3cccnc3)c2c1=O | 612 s |
| Cn1c(=O)n(CC(=O)Nc2ccccc2Cl)c(=O)c2cnc(-c3ccccc3)nc21 | 1020 s |
| CCN(CC)CCNC(=O)c1nnc(-c2ccc(S(=O)(=O)N3CCC(C)CC3)cc2)o1 | 696 s |
| Cn1nc(C(=O)N2CCCN(c3cc(-c4ccc(Br)cc4)[nH]n3)CC2)c2ccccc21 | 807 s |
| CN1CCN(C(CNC(=O)c2ccc(Cl)cc2)c2ccc(N(C)C)cc2)CC1 (stereo not drawn) | 557 s |
| CC1CCN(C(=O)C2CCN(c3nc4ccc(-c5ccccc5)nc4s3)CC2)CC1 | 1140 s |
